target: Glycogen synthase kinase-3 beta (Homo sapiens, UniProt P49841); assay: Inhibition of human recombinant GSK3beta assessed as inhibition of [gamma32P]ATP after 1 hr by liquid scintillation counting in presence of prephosphorylated GS1 peptide; settings: not given
Sequence (P49841 whole entry): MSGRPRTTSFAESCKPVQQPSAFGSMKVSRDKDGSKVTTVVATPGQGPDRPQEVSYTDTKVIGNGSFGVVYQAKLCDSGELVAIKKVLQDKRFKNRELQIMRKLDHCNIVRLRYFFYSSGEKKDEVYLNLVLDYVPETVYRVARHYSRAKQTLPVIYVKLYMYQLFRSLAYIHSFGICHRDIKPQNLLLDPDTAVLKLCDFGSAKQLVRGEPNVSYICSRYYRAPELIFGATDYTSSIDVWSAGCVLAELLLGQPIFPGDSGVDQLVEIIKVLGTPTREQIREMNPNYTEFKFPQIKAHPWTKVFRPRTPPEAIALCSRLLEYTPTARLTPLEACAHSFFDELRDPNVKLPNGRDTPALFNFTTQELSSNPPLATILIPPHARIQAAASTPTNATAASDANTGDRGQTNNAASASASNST

Row | IC50 [nM] | SMILES
1 | 14 | CC(C)[C@@H]1COCCN1c1nc(-c2ccncc2F)cc(=O)n1C
2 | 30 | CC[C@H]1COCCN1c1nc(-c2ccncc2F)cc(=O)n1C
3 | 4.9 | C[C@@H]1[C@@H](C)OCCN1c1nc(-c2ccncc2F)cc(=O)n1C
4 | 4.2 | Cn1c(N2CCO[C@@H]3CCC[C@H]32)nc(-c2ccncc2F)cc1=O
5 | 12 | Cn1c(N2CCOC(C3CCC3)C2)nc(-c2ccncc2F)cc1=O (racemic)
6 | 67 | Cn1c(N2CCOCC2)nc(-c2ccncc2F)cc1=O
7 | 17 | CC(C)C1CN(c2nc(-c3ccncc3F)cc(=O)n2C)CCO1 (racemic)
8 | 453 | C[C@@H]1CN(c2nc(-c3ccncc3F)cc(=O)n2C)[C@H](C)CO1
9 | 9.7 | CC1N(c2nc(-c3ccncc3F)cc(=O)n2C)CCOC1(C)C (racemic)
10 | 19 | C[C@@H]1OCCN(c2nc(-c3ccncc3F)cc(=O)n2C)[C@H]1C
11 | 19 | CC[C@@H]1COCCN1c1nc(-c2ccncc2F)cc(=O)n1C
12 | 41 | C[C@@H]1CO[C@@H](C)CN1c1nc(-c2ccncc2F)cc(=O)n1C
13 | 23 | C[C@H]1COCCN1c1nc(-c2ccncc2F)cc(=O)n1C
14 | 35 | Cn1c(N2CCO[C@H]3CCC[C@@H]32)nc(-c2ccncc2F)cc1=O
15 | 16 | C[C@@H]1OCCN(c2nc(-c3ccncc3F)cc(=O)n2C)[C@@H]1C (stereo in doubt; 13)
16 | 7 | C[C@@H]1COCCN1c1nc(-c2ccncc2F)cc(=O)n1C
17 | 3.7 | Cn1c(N2CCO[C@@H]3CCCC[C@H]32)nc(-c2ccncc2F)cc1=O
18 | 32 | C[C@@H]1OCCN(c2nc(-c3ccncc3F)cc(=O)n2C)[C@@H]1C (stereo in doubt; 14)
19 | 12 | CCCCC1CN(c2nc(-c3ccncc3F)cc(=O)n2C)CCO1 (racemic)
20 | 3.1 | Cn1c(N2CCO[C@@H]3COC[C@H]32)nc(-c2ccncc2F)cc1=O

system: not listed separately; assay: Intrinsic clearance in human liver microsomes; format: ADME; settings: not given

Row | CLint scaled [µL/min/mg] | SMILES
21 | 40 | Cn1c(N2CCO[C@@H]3CCC[C@H]32)nc(-c2ccncc2F)cc1=O
22 | 200 | Cn1c(N2CCOC(C3CCC3)C2)nc(-c2ccncc2F)cc1=O (racemic)
23 | 70 | CC(C)C1CN(c2nc(-c3ccncc3F)cc(=O)n2C)CCO1 (racemic)
24 | 20 | C[C@H]1COCCN1c1nc(-c2ccncc2F)cc(=O)n1C
25 | 30 | C[C@@H]1COCCN1c1nc(-c2ccncc2F)cc(=O)n1C
26 | 200 | Cn1c(N2CCO[C@@H]3CCCC[C@H]32)nc(-c2ccncc2F)cc1=O
27 | 210 | CCCCC1CN(c2nc(-c3ccncc3F)cc(=O)n2C)CCO1 (racemic)
28 | 60 | Cn1c(N2CCO[C@@H](c3ccc(F)cc3)C2)nc(-c2ccncn2)cc1=O
29 | 20 | Cn1c(N2CCO[C@@H]3COC[C@H]32)nc(-c2ccncc2F)cc1=O

target: T1, Cytochrome P450 1A2 (Homo sapiens, UniProt P05177); assay: Inhibition of recombinant human CYP1A2; format: ADME; settings: not given
T1 sequence (P05177 whole entry): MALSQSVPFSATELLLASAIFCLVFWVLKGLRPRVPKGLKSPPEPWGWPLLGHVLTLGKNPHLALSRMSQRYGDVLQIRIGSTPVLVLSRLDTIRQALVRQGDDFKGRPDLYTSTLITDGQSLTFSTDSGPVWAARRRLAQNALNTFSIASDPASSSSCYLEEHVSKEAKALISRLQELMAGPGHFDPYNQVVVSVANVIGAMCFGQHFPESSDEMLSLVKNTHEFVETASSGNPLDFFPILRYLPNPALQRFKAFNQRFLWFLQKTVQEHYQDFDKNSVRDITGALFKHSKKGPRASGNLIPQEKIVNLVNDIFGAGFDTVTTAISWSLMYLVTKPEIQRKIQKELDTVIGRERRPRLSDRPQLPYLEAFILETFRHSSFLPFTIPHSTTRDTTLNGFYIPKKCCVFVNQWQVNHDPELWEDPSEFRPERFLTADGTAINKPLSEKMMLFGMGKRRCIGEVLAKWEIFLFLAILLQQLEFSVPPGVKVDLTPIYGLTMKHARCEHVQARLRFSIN

Row | IC50 [nM] | SMILES
30 | 16000 | C[C@@H]1[C@@H](C)OCCN1c1nc(-c2ccncc2F)cc(=O)n1C
31 | 21000 | Cn1c(N2CCO[C@@H]3CCC[C@H]32)nc(-c2ccncc2F)cc1=O
32 | 1500 | Cn1c(N2CCOC(C3CCC3)C2)nc(-c2ccncc2F)cc1=O (racemic)
33 | 3300 | CC(C)C1CN(c2nc(-c3ccncc3F)cc(=O)n2C)CCO1 (racemic)
34 | 5700 | C[C@H]1COCCN1c1nc(-c2ccncc2F)cc(=O)n1C
35 | 18700 | C[C@@H]1COCCN1c1nc(-c2ccncc2F)cc(=O)n1C
36 | 14000 | Cn1c(N2CCO[C@@H]3CCCC[C@H]32)nc(-c2ccncc2F)cc1=O
37 | 7500 | CCCCC1CN(c2nc(-c3ccncc3F)cc(=O)n2C)CCO1 (racemic)
38 | > 50000 | Cn1c(N2CCO[C@@H]3COC[C@H]32)nc(-c2ccncc2F)cc1=O

target: Cytochrome P450 2D6 (Homo sapiens, UniProt P10635); assay: Inhibition of recombinant human CYP2D6; format: ADME; settings: not given
Sequence (P10635 whole entry): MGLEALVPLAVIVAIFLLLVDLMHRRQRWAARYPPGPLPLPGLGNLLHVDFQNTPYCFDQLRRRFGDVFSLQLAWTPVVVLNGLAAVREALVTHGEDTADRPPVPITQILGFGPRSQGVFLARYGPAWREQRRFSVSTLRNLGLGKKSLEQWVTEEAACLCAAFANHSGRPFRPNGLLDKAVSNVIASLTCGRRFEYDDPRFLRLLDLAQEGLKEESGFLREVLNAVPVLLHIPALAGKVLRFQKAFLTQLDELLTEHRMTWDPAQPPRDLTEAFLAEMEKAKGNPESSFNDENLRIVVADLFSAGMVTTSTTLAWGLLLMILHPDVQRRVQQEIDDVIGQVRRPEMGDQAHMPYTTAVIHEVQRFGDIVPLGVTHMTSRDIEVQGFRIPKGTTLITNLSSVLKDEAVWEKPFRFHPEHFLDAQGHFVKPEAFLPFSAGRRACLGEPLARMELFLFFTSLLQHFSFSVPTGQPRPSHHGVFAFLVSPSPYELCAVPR

Row | IC50 [nM] | SMILES
39 | > 50000 | C[C@@H]1[C@@H](C)OCCN1c1nc(-c2ccncc2F)cc(=O)n1C
40 | > 50000 | Cn1c(N2CCO[C@@H]3CCC[C@H]32)nc(-c2ccncc2F)cc1=O
41 | 37700 | Cn1c(N2CCOC(C3CCC3)C2)nc(-c2ccncc2F)cc1=O (racemic)
42 | > 50000 | CC(C)C1CN(c2nc(-c3ccncc3F)cc(=O)n2C)CCO1 (racemic)
43 | > 50000 | C[C@H]1COCCN1c1nc(-c2ccncc2F)cc(=O)n1C
44 | > 50000 | C[C@@H]1COCCN1c1nc(-c2ccncc2F)cc(=O)n1C
45 | > 50000 | Cn1c(N2CCO[C@@H]3CCCC[C@H]32)nc(-c2ccncc2F)cc1=O
46 | 2300 | CCCCC1CN(c2nc(-c3ccncc3F)cc(=O)n2C)CCO1 (racemic)
47 | > 50000 | Cn1c(N2CCO[C@@H]3COC[C@H]32)nc(-c2ccncc2F)cc1=O

target: Cytochrome P450 3A4 (Homo sapiens, UniProt P08684); assay: Inhibition of recombinant human CYP3A4; format: ADME; settings: not given
Sequence (P08684 whole entry): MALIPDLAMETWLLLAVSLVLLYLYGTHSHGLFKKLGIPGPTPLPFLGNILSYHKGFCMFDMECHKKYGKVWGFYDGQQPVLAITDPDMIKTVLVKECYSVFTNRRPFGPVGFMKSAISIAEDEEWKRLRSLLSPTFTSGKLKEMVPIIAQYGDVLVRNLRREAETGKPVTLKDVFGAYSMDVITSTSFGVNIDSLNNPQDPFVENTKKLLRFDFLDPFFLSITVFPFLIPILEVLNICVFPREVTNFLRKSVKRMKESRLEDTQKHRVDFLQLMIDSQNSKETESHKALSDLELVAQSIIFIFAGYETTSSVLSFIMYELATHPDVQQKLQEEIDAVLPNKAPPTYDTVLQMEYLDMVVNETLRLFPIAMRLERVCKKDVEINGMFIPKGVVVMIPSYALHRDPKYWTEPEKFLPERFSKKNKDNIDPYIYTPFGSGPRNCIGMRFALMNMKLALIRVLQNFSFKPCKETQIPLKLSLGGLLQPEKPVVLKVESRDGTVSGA

Row | IC50 [nM] | SMILES
48 | > 50000 | C[C@@H]1[C@@H](C)OCCN1c1nc(-c2ccncc2F)cc(=O)n1C
49 | > 50000 | Cn1c(N2CCO[C@@H]3CCC[C@H]32)nc(-c2ccncc2F)cc1=O
50 | > 50000 | Cn1c(N2CCOC(C3CCC3)C2)nc(-c2ccncc2F)cc1=O (racemic)
51 | > 50000 | CC(C)C1CN(c2nc(-c3ccncc3F)cc(=O)n2C)CCO1 (racemic)
52 | > 50000 | C[C@H]1COCCN1c1nc(-c2ccncc2F)cc(=O)n1C
53 | > 50000 | C[C@@H]1COCCN1c1nc(-c2ccncc2F)cc(=O)n1C
54 | > 50000 | Cn1c(N2CCO[C@@H]3CCCC[C@H]32)nc(-c2ccncc2F)cc1=O
55 | > 50000 | CCCCC1CN(c2nc(-c3ccncc3F)cc(=O)n2C)CCO1 (racemic)
56 | > 50000 | Cn1c(N2CCO[C@@H](c3ccc(F)cc3)C2)nc(-c2ccncn2)cc1=O
57 | > 50000 | Cn1c(N2CCO[C@@H]3COC[C@H]32)nc(-c2ccncc2F)cc1=O

system: not listed separately; assay: Permeability across human Caco2 cells; format: ADME, cell-based; settings: Caco-2, read-out: permeability

Row | Papp [×10⁻⁶ cm/s] | SMILES
58 | 48.5 | C[C@@H]1[C@@H](C)OCCN1c1nc(-c2ccncc2F)cc(=O)n1C
59 | 44.5 | Cn1c(N2CCO[C@@H]3CCC[C@H]32)nc(-c2ccncc2F)cc1=O
60 | 54.6 | C[C@@H]1COCCN1c1nc(-c2ccncc2F)cc(=O)n1C
61 | 41.8 | Cn1c(N2CCO[C@@H]3CCCC[C@H]32)nc(-c2ccncc2F)cc1=O
62 | 54.5 | Cn1c(N2CCO[C@@H]3COC[C@H]32)nc(-c2ccncc2F)cc1=O

system: Mus musculus; assay: Inhibition of GSK3beta-mediated tau phosphorylation at Ser396 residue in po dosed CD-1 mouse measured 1 hr post dose; format: functional; settings: CD-1, po

Row | SMILES | ED50 [mg/kg]
63 | C[C@@H]1COCCN1c1nc(-c2ccncc2F)cc(=O)n1C | 6.8

Source: ChEMBL document CHEMBL3400125, “Discovery of novel 2-(alkylmorpholin-4-yl)-6-(3-fluoropyridin-4-yl)-pyrimidin-4(3H)-ones as orally-active GSK-3β inhibitors for Alzheimer's disease” (Bioorg Med Chem Lett, 2015)
